The test concerns trypsin. The test is described as follows: Petri plate assay detecting zones of protease protection by protease inhibitors or bacterial strains after flooding with trypsin. It counts as biochemical. Conditions: for relative size of zone of inhibition (diffusion zone): casein plates, to a lesser degree gelatin plates, compared among leupeptin, aprotinin and α-2-macroglobulin. The text has this: Because the protocol is destructive to the plate assayed, a duplicate or replica plate is generated and retained for identification and further analysis of the strains using methods known to those skilled in the arts. The initial step is the exposure of the protease detection plate to a protease inhibitor or bacterial growth. Either commercially available protease inhibitor peptides or growth of bacterial strains on the protease detection plates can be detected. […] The bacterial strains Photorabdus (Xenorhabdus) luminescens strain Hm primary and secondary forms where the secondary and not the primary form is known to secrete a protease inhibitor and the other strains are negative controls (Wee et al. 2000, A new broad-spectrum protease inhibitor from the entomopathogenic bacterium Photorhabdus luminescens. Microbiology 146: 3141-3147), Citrobacter freundii (ATCC #33128), Staphylococcus aureus, S. epidermidis and Enterococcusfaecalis are allowed to grow two days at 30° C. in air.
The base media can be any microbiological media designed to facilitate the growth of cultivable microorganism; different media can be used to favor different strains as appropriate (Kreig, 1981, Chapter 8, Enrichment and Isolation, p. 112-142 in Manual of Methods for General Bacteriology, Gerhardt et al., eds, American Society for Microbiology, Washington, D.C.). Variations on the type of protease being targeted, the protease substrate and cognate inhibitors are shown in Table 1 and used as a guide in the modification of media. A casein base media based on that of Vijayaraghavan and Vincent (2013, A simple method for the detection of protease activity on agar plates using bromochresol green dye, J. Biochem. Tech. 4: 628-630), which contained 5 grams of peptone, 1.5 grams of yeast extract, 1.5 grams of sodium chloride per liter with, except that the casein 0.5% is used (instead of 1.0%) and dissolved as described by Montville (1983, Dual-substrate plate diffusion assay for proteases, Appl Environ Microbiol 45: 200-204) using 0.02 N NaOH. When bromochresol green (BCG) is added directly to the media, 0.0015% is used. BCG preincorporated into the media as well as post incubation addition of a BCG dye reagent containing 0.028% BCG dissolved in 0.56% (w/v) succinic acid, 0.1% (w/v) NaOH (Vijayaraghavan and Vincent; 2013) with 0.6% Brij-35 and then acidified to pH 4.2 can also be used following exposure to a protease inhibitor or bacterial growth and subsequent exposure to a protease. After staining and then destaining in water the by completely removing the agar from the lower plastic, the plates are observed for the presence and absence of protein. Ponseau S staining by flooding the plate with 5 ml of the stain containing 0.1% Ponseau S (PS; Sigma, St. Louis, Mo.) and 5% acetic acid in water for 1-2 hrs and then marking the agar with a 23 ga syringe needle dipped in India ink at a corresponding register marked on the plastic petri plate, removing the agar from the plate and destaining overnight in water before observing them and is highly sensitive.
A gelatin based media (Medina and Baresi 2007, Rapid identification of gelatin and casein hydrolysis using TCA, J Microbiol Meth 69: 391-393) which uses 40 grams per liter of tryptic soy agar powder without glucose (Becton Dickinson, Sparks, Md.) modified to contain 8 g of gelatin (instead of 16 g) per liter may be preferable for certain organisms depending upon their growth requirements and is used as is appropriate. Approximately 5 ml of 20% trichloroacetic acid (TCA; Thermo Fisher, Waltham, Mass.) was used for protein precipitation per petri plate. This media can also be combined with preincorporated BCG, or post-incubation BCG dye reagent or Ponseau S, each as described above for the casein plates. […]

Where [1] appears, read: BCG-containing plates further stained with PS, 0.625 mg/ml trypsin for casein, 0.0625 mg/ml for gelatin (FIG. 2B).
[2] abbreviates: casein plates with preincorporated BCG, before PS staining (FIG. 2A).

As for `CC(C)C[C@H](NC(=O)[C@@H](O)[C@H](N)Cc1ccccc1)C(=O)O` [bestatin], the “visualization of zone of protease protection” value (from here on “visualization”) under setting [1] is “no staining”.
With `CC(=O)N[C@@H](CC(C)C)C(=O)N[C@@H](CC(C)C)C(=O)N[C@H](C=O)CCCNC(=N)N` [Leupeptin, leupeptin], the “relative size of zone of inhibition (diffusion zone)” value is reported as “notably larger”. Moreover, the “visualization” value under setting [1] is given as “able to visualize”.
Consider aprotinin [Aprotonin], for which the “visualization” value is given as “able to visualize” under setting [1] and “faintly visualize” under setting [2].

B1: α-2-macroglobulin (protein, UniProt P01023 24-1474, looked up)
Alpha-2-macroglobulin: SVSGKPQYMVLVPSLLHTETTEKGCVLLSYLNETVTVSASLESVRGNRSLFTDLEAENDVLHCVAFAVPKSSSNEEVMFLTVQVKGPTQEFKKRTTVMVKNEDSLVFVQTDKSIYKPGQTVKFRVVSMDENFHPLNELIPLVYIQDPKGNRIAQWQSFQLEGGLKQFSFPLSSEPFQGSYKVVVQKKSGGRTEHPFTVEEFVLPKFEVQVTVPKIITILEEEMNVSVCGLYTYGKPVPGHVTVSICRKYSDASDCHGEDSQAFCEKFSGQLNSHGCFYQQVKTKVFQLKRKEYEMKLHTEAQIQEEGTVVELTGRQSSEITRTITKLSFVKVDSHFRQGIPFFGQVRLVDGKGVPIPNKVIFIRGNEANYYSNATTDEHGLVQFSINTTNVMGTSLTVRVNYKDRSPCYGYQWVSEEHEEAHHTAYLVFSPSKSFVHLEPMSHELPCGHTQTVQAHYILNGGTLLGLKKLSFYYLIMAKGGIVRTGTHGLLVKQEDMKGHFSISIPVKSDIAPVARLLIYAVLPTGDVIGDSAKYDVENCLANKVDLSFSPSQSLPASHAHLRVTAAPQSVCALRAVDQSVLLMKPDAELSASSVYNLLPEKDLTGFPGPLNDQDNEDCINRHNVYINGITYTPVSSTNEKDMYSFLEDMGLKAFTNSKIRKPKMCPQLQQYEMHGPEGLRVGFYESDVMGRGHARLVHVEEPHTETVRKYFPETWIWDLVVVNSAGVAEVGVTVPDTITEWKAGAFCLSEDAGLGISSTASLRAFQPFFVELTMPYSVIRGEAFTLKATVLNYLPKCIRVSVQLEASPAFLAVPVEKEQAPHCICANGRQTVSWAVTPKSLGNVNFTVSAEALESQELCGTEVPSVPEHGRKDTVIKPLLVEPEGLEKETTFNSLLCPSGGEVSEELSLKLPPNVVEESARASVSVLGDILGSAMQNTQNLLQMPYGCGEQNMVLFAPNIYVLDYLNETQQLTPEIKSKAIGYLNTGYQRQLNYKHYDGSYSTFGERYGRNQGNTWLTAFVLKTFAQARAYIFIDEAHITQALIWLSQRQKDNGCFRSSGSLLNNAIKGGVEDEVTLSAYITIALLEIPLTVTHPVVRNALFCLESAWKTAQEGDHGSHVYTKALLAYAFALAGNQDKRKEVLKSLNEEAVKKDNSVHWERPQKPKAPVGHFYEPQAPSAEVEMTSYVLLAYLTAQPAPTSEDLTSATNIVKWITKQQNAQGGFSSTQDTVVALHALSKYGAATFTRTGKAAQVTIQSSGTFSSKFQVDNNNRLLLQQVSLPELPGEYSMKVTGEGCVYLQTSLKYNILPEKEEFPFALGVQTLPQTCDEPKAHTSFQISLSVSYTGSRSASNMAIVDVKMVSGFIPLKPTVKMLERSNHVSRTEVSSNHVLIYLDKVSNQTLSLFFTVLQDVPVRDLKPAIVKVYDYYETDEFAIAEYNAPCSKDLGNA
As for B1, the “relative size of zone of inhibition (diffusion zone)” value is “smallest diffusion zone”. Further, under setting [1], the “visualization” value is reported as “able to visualize”. The “diffusion distance of inhibitor on plate” value (casein BCG plate, PS stained (FIGS. 5A and 5B)) was “diffused only a short distance”. The “visualization” value under setting [2] was “faintly visualize”.

The values above are taken from patent publication US10828350B1, “Topical and orally administered protease inhibitors and bacterial vectors for the treatment of disorders and methods of treatment” (priority 2014, dated 2020).
